The series can be described thus: Oxidative degradation of amorphous and polymorphic forms of atorvastatin at 80° C. in air and oxygen (liquid chromatography). Format: physicochemical. As to conditions: hemicalcium salt; for Sensitivity to oxygen and oxidation (conclusion): from 80° C., 3 days, air/oxygen study; for Increase of degradation products %: in respect to reference samples stored at 4° C. The protocol: The influence of oxygen on occurrence of degradation products of amorphous and four polymorphic forms of atorvastatin was investigated. The samples of amorphous atorvastatin and polymorphic forms I to IV of atorvastatin were exposed at 80° C. in normal (air) and oxygen atmosphere for 3 days. The assay of oxidation products was determined by liquid chromatography. All of the chosen forms of atorvastatin stored at 4° C. were analyzed as the reference samples.

Where [1] appears, read: stored at 80° C. 3 days in normal (air) atmosphere.
Where [2] appears, read: stored at 80° C. 3 days in oxygen atmosphere.

Here are results for five molecules from US9907757B2, “Coated particles and pharmaceutical dosage forms” (Lek Pharmaceuticals d.d., priority 2003, dated 2018).

Molecules are shown by their SMILES.

Regarding `CC(C)c1c(C(=O)Nc2ccccc2)c(-c2ccccc2)c(-c2ccc(F)cc2)n1CC[C@@H](O)C[C@@H](O)CC(=O)O.CC(C)c1c(C(=O)Nc2ccccc2)c(-c2ccccc2)c(-c2ccc(F)cc2)n1CC[C@@H](O)C[C@@H](O)CC(=O)O.CC(C)c1c(C(=O)Nc2ccccc2)c(-c2ccccc2)c(-c2ccc(F)cc2)n1CC[C@@H](O)C[C@@H](O)CC(=O)[O-].CC(C)c1c(C(=O)Nc2ccccc2)c(-c2ccccc2)c(-c2ccc(F)cc2)n1CC[C@@H](O)C[C@@H](O)CC(=O)[O-].[Ca+2]` (relative stereo) [Amorphous ATV, (R-(R*,R*))-2-(4-fluorophenyl-beta, delta-dihydroxy-5-(1-methylethyl)-3-phenyl-4-((phenylamino)carbonyl)-1H-pyrrole-1-heptanoic acid hemicalcium salt], where the note is “listed as amorphous atorvastatin”, the “Sensitivity to oxygen and oxidation (conclusion)” value (“Sensitivity” below) is recorded as “highly sensitive to oxidation”. Besides, the “Increase of degradation products %” value was 1.04% under setting [1] and 3.4% under setting [2].
Consider `CC(C)c1c(C(=O)Nc2ccccc2)c(-c2ccccc2)c(-c2ccc(F)cc2)n1CC[C@@H](O)C[C@@H](O)CC(=O)O.CC(C)c1c(C(=O)Nc2ccccc2)c(-c2ccccc2)c(-c2ccc(F)cc2)n1CC[C@@H](O)C[C@@H](O)CC(=O)O.CC(C)c1c(C(=O)Nc2ccccc2)c(-c2ccccc2)c(-c2ccc(F)cc2)n1CC[C@@H](O)C[C@@H](O)CC(=O)[O-].CC(C)c1c(C(=O)Nc2ccccc2)c(-c2ccccc2)c(-c2ccc(F)cc2)n1CC[C@@H](O)C[C@@H](O)CC(=O)[O-].[Ca+2]` (relative stereo) [Crystalline form IV, (R-(R*,R*))-2-(4-fluorophenyl-beta, delta-dihydroxy-5-(1-methylethyl)-3-phenyl-4-((phenylamino)carbonyl)-1H-pyrrole-1-heptanoic acid hemicalcium salt], for which the “Sensitivity” value is listed as “highly sensitive to oxidation”. Under setting [1], the “Increase of degradation products %” value stood at 1.14%. In addition, the “Increase of degradation products %” value under setting [2] came to 3.67%.
The like results for `CC(C)c1c(C(=O)Nc2ccccc2)c(-c2ccccc2)c(-c2ccc(F)cc2)n1CC[C@@H](O)C[C@@H](O)CC(=O)O.CC(C)c1c(C(=O)Nc2ccccc2)c(-c2ccccc2)c(-c2ccc(F)cc2)n1CC[C@@H](O)C[C@@H](O)CC(=O)O.CC(C)c1c(C(=O)Nc2ccccc2)c(-c2ccccc2)c(-c2ccc(F)cc2)n1CC[C@@H](O)C[C@@H](O)CC(=O)[O-].CC(C)c1c(C(=O)Nc2ccccc2)c(-c2ccccc2)c(-c2ccc(F)cc2)n1CC[C@@H](O)C[C@@H](O)CC(=O)[O-].[Ca+2]` (relative stereo) [Crystalline form II, (R-(R*,R*))-2-(4-fluorophenyl-beta, delta-dihydroxy-5-(1-methylethyl)-3-phenyl-4-((phenylamino)carbonyl)-1H-pyrrole-1-heptanoic acid hemicalcium salt] were, in that order, “slightly sensitive to oxidation”, 0.25% and 0.71%.
For `CC(C)c1c(C(=O)Nc2ccccc2)c(-c2ccccc2)c(-c2ccc(F)cc2)n1CC[C@@H](O)C[C@@H](O)CC(=O)O.CC(C)c1c(C(=O)Nc2ccccc2)c(-c2ccccc2)c(-c2ccc(F)cc2)n1CC[C@@H](O)C[C@@H](O)CC(=O)O.CC(C)c1c(C(=O)Nc2ccccc2)c(-c2ccccc2)c(-c2ccc(F)cc2)n1CC[C@@H](O)C[C@@H](O)CC(=O)[O-].CC(C)c1c(C(=O)Nc2ccccc2)c(-c2ccccc2)c(-c2ccc(F)cc2)n1CC[C@@H](O)C[C@@H](O)CC(=O)[O-].[Ca+2]` (relative stereo) [Crystalline form I, (R-(R*,R*))-2-(4-fluorophenyl-beta, delta-dihydroxy-5-(1-methylethyl)-3-phenyl-4-((phenylamino)carbonyl)-1H-pyrrole-1-heptanoic acid hemicalcium salt], the “Sensitivity” value is “stable to oxygen and oxidation”. In addition, the “Increase of degradation products %” value under setting [1] is 0.04%. The “Increase of degradation products %” value under setting [2] was 0.07%.
In the case of `CC(C)c1c(C(=O)Nc2ccccc2)c(-c2ccccc2)c(-c2ccc(F)cc2)n1CC[C@@H](O)C[C@@H](O)CC(=O)O.CC(C)c1c(C(=O)Nc2ccccc2)c(-c2ccccc2)c(-c2ccc(F)cc2)n1CC[C@@H](O)C[C@@H](O)CC(=O)O.CC(C)c1c(C(=O)Nc2ccccc2)c(-c2ccccc2)c(-c2ccc(F)cc2)n1CC[C@@H](O)C[C@@H](O)CC(=O)[O-].CC(C)c1c(C(=O)Nc2ccccc2)c(-c2ccccc2)c(-c2ccc(F)cc2)n1CC[C@@H](O)C[C@@H](O)CC(=O)[O-].[Ca+2]` (relative stereo) [Crystalline form III, (R-(R*,R*))-2-(4-fluorophenyl-beta, delta-dihydroxy-5-(1-methylethyl)-3-phenyl-4-((phenylamino)carbonyl)-1H-pyrrole-1-heptanoic acid hemicalcium salt], the “Sensitivity” value is “slightly sensitive to oxidation”. Under setting [1], the “Increase of degradation products %” value came to 0.11%. Besides, the “Increase of degradation products %” value under setting [2] amounted to 0.47%.
